Converted amounts (≈) assume the structure as drawn.
Experiments:
[1] = tested on: Mycobacterium tuberculosis; assay: Antimycobacterial activity against Mycobacterium tuberculosis H37Ra assessed as reduction in bacterial growth by MABA method; format: functional
[2] = tested on: Mycobacterium tuberculosis; assay: Antimycobacterial activity against Mycobacterium tuberculosis assessed as reduction in bacterial growth measured after 7 days by fluorescence microplate analysis; format: functional, organism-based; details: 168 h; for MIC: time 7 day
[3] = tested on: Mycobacterium tuberculosis; assay: Antimycobacterial activity against intracellular Mycobacterium tuberculosis assessed as reduction in cell growth; format: functional
[4] = tested on: Mycobacterium tuberculosis; assay: Antimycobacterial activity against Mycobacterium tuberculosis H37Rv assessed as reduction in bacterial growth incubated for 5 days by resazurin dye based fluorescence analysis; format: functional; details: 120 h, time 5 day
[5] = Cytotoxicity against mouse RAW264.7 cells assessed as reduction in cell viability incubated for 48 hrs by MTT assay; format: toxicity, cell-based
[6] = tested on: Mycobacterium tuberculosis; assay: Antimycobacterial activity against Mycobacterium tuberculosis assessed as reduction in bacterial cell growth measured after 24 hrs; format: functional, organism-based
[7] = tested on: Mycobacterium tuberculosis; assay: Antimycobacterial activity against Mycobacterium tuberculosis assessed as inhibition of bacterial growth incubated for 7 days by broth dilution method; format: functional; details: 168 h, time 7 day
[8] = Binding affinity to Mycobacterium tuberculosis salicylate synthase using chorismic acid as substrate in presence of MgCl2 by fluorimetric assay
[9] = tested on: Mycobacterium tuberculosis; assay: Antibacterial activity against Mycobacterium tuberculosis H37Rv assessed as reduction in bacterial growth; format: functional
[10] = tested on: Mycobacterium tuberculosis; assay: Antimycobacterial activity against Mycobacterium tuberculosis H37Rv assessed as inhibition of bacterial growth incubated for 5 days by broth microdilution method; format: functional; details: 120 h, time 5 day
[11] = tested on: Mycobacterium tuberculosis; assay: Antimicrobial activity against Mycobacterium tuberculosis H37Rv assessed as reduction in bacterial growth by Alamar Blue fluorescence assay; format: functional
[12] = tested on: Mycobacterium tuberculosis; assay: Antibacterial activity against Mycobacterium tuberculosis H37Rv assessed as reduction in bacterial growth incubated for 7 to 14 days by broth microdilution method; format: functional; details: time 7-14 day
[13] = tested on: Mycobacterium tuberculosis; assay: Antibacterial activity against Mycobacterium tuberculosis H37Rv assessed as reduction in bacterial growth incubated for 7 to 14 days; format: functional; details: time 7-14 day
[14] = Inhibition of Mycobacterium tuberculosis IdeR assessed as reduction in IdeR DNA binding activity by electrophoretic mobility shift assay
[15] = target: T1, Enoyl-[acyl-carrier-protein] reductase [NADH] (Mycobacterium tuberculosis, UniProt P9WGR1); assay: Binding affinity to Mycobacterium tuberculosis InhA assessed as inhibition constant
T1 sequence (P9WGR1 whole entry): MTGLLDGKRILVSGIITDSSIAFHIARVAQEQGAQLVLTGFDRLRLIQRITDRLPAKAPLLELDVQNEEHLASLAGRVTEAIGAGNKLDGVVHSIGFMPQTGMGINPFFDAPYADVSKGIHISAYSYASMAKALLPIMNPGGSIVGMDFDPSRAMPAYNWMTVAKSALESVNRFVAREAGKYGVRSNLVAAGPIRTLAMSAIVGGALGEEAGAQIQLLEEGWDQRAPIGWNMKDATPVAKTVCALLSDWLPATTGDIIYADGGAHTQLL

[16] = tested on: Mycobacterium tuberculosis; assay: Antitubercular activity against Mycobacterium tuberculosis H37Rv assessed as reduction in microbial growth by broth dilution method; format: functional, organism-based
[17] = tested on: Mycobacterium tuberculosis; assay: Antitubercular activity against Mycobacterium tuberculosis XDR-FJ05195 assessed as inhibition of bacterial growth incubated for 14 days by microplate alamar blue assay; format: functional; details: XDR-FJ05195, 336 h, time 14 day
[18] = tested on: Mycobacterium tuberculosis; assay: Antimycobacterial activity against Mycobacterium tuberculosis H37Rv by green fluorescent protein microplate assay; format: functional
[19] = tested on: Mycobacterium tuberculosis; assay: Antitubercular activity against Mycobacterium tuberculosis H37Rv ATCC 25618 assessed as reduction in bacterial growth; format: functional
[20] = Inhibition of recombinant Mycobacterium tuberculosis salicylate synthase by fluorimetric assay
[21] = tested on: Mycobacterium tuberculosis; assay: Antimycobacterial activity against Mycobacterium tuberculosis H37Rv assessed as reduction in bacterial growth after 7 days by resazurin based fluorescence assay; format: functional, organism-based; details: 168 h
[22] = tested on: Mycobacterium tuberculosis; assay: Antimycobacterial activity against Mycobacterium tuberculosis H37Rv assessed as inhibition of bacterial growth incubated for 7 days by broth dilution method; format: functional; details: 168 h, time 7 day
[23] = tested on: Mycolicibacterium smegmatis; assay: Antimycobacterial activity against Mycobacterium smegmatis ATCC 607 assessed as bacterial growth inhibition incubated for 48 hrs by resazurin dye based assay; format: functional
[24] = tested on: Mycolicibacterium smegmatis; assay: Antimycobacterial activity against Mycobacterium smegmatis assessed as bacterial growth inhibition incubated for 48 hrs by resazurin dye based assay; format: functional
[25] = target: T2, Trehalose monomycolate exporter MmpL3 (Mycolicibacterium smegmatis, UniProt A0QP27); assay: Binding affinity to Mycobacterium smegmatis MmpL3 by surface plasmon resonance assay
T2 sequence (A0QP27 whole entry): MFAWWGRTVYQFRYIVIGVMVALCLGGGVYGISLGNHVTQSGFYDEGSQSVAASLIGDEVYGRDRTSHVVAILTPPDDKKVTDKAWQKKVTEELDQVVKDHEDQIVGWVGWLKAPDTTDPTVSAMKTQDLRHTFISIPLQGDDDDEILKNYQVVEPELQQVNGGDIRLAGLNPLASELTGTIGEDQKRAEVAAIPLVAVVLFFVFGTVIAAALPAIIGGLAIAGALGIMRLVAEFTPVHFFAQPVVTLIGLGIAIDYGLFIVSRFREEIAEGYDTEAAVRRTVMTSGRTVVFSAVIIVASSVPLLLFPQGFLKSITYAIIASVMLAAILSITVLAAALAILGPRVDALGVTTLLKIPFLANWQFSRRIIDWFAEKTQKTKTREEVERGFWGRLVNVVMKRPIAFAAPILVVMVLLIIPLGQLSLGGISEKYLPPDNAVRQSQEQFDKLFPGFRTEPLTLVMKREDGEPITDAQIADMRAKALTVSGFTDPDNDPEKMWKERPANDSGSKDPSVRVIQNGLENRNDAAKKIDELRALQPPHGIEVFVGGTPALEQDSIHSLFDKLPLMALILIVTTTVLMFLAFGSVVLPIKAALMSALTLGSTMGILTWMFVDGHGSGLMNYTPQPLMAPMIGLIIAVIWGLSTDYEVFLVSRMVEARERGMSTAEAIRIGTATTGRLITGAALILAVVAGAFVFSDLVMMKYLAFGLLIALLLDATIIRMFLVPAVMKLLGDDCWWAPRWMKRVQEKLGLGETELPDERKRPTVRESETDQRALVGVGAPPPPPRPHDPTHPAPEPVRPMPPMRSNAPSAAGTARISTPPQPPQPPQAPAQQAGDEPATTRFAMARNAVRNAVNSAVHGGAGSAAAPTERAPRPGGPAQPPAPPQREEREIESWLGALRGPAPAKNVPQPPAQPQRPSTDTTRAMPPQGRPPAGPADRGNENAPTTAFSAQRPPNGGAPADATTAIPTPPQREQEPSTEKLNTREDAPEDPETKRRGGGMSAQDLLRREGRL

[26] = target: T3, Salicyl-AMP ligase / salicyl-S-ArCP synthetase (Mycobacterium tuberculosis, UniProt P71716); assay: Binding affinity to Mycobacterium tuberculosis H37Rv ATCC 25618 MbtA assessed as apparent binding constant; details: read-out: Ki(app)
T3 sequence (P71716 whole entry): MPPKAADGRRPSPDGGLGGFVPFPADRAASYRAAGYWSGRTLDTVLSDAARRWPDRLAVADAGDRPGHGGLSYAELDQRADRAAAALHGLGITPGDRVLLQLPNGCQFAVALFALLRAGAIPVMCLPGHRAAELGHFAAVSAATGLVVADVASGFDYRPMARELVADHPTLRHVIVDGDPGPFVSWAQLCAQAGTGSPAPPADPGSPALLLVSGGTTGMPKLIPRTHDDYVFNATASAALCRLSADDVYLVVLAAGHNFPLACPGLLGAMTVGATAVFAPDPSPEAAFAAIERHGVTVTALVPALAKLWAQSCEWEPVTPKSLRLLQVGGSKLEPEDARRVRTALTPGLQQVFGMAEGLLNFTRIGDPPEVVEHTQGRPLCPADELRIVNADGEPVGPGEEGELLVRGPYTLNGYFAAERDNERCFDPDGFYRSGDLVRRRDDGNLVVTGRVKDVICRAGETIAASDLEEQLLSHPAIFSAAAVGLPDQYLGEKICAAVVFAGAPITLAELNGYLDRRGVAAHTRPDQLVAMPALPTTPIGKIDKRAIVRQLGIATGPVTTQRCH

## C[N+](C)(CCCN1c2ccccc2Sc2ccc(Cl)cc21)Cc1ccccc1
[1]
  MIC: 1.1 µg/mL

## Cc1ccc(-n2sc3ccccc3c2=O)cc1
[2]
  IC50: 1.59 µM

## O=[N+]([O-])c1cc(C(F)(F)F)ccc1NCCc1c[nH]c2ccc(O)cc12
[3]
  IC90: 9.3 µM
[4]
  MIC90: 13 µM (≈ 4.75 µg/mL)
[5]
  IC50 at 48 h: 29 µM

## CCN(CC)S(=O)(=O)c1cccc(-n2sc3ccccc3c2=O)c1
[2]
  IC50: 0.86 µM
[6]
  IC50: 0.96 µM

## O=C(O)c1ccc(-c2ccc([N+](=O)[O-])cc2Cl)o1
[7]
  MIC: 21.1 µM (≈ 5.65 µg/mL)

## Nc1ncnc2c1ncn2[C@@H]1O[C@H](CNS(=O)(=O)NC(=O)c2ccccc2O)[C@@H](O)[C@H]1F
[8]
  Ki: 0.0017 µM
[9]
  MIC: 0.19 µM (≈ 0.0888 µg/mL)

## Nc1ncnc2c1ncn2[C@@H]1O[C@H](COS(=O)(=O)NC(=O)c2ccccc2O)[C@@H](O)[C@H]1O
[10]
  MIC: 0.5 µg/mL (≈ 1.07 µM)
[11]
  MIC: 0.39 µg/mL (≈ 0.836 µM)
[12]
  MIC: 0.39 µM (≈ 0.182 µg/mL)
[13]
  MIC: 1.56 µM (≈ 0.728 µg/mL)

## O=C(O)C1(Cc2ccc(O)c(O)c2)NCCS1 (stereo not drawn)
[14]
  IC50: 2.4 µg/mL

## N#Cc1cc(-c2ccc(C(=O)O)o2)cc(C(F)(F)F)c1
[15]
  Ki: 9 µM
[16]
  IC50: 15 µM

## CCCCCCCCCCCCCCCCC(=O)N(O)CCCC[C@H](NC(=O)[C@@H]1COC(c2ccccc2O)=N1)C(=O)NC[C@H](CC(=O)CCCO[C@H]1O[C@@H]2O[C@@]3(C)CC[C@H]4[C@H](C)CC[C@@H]([C@H]1C)[C@@]24OO3)C(=O)N[C@H]1CCCCN(O)C1=O
[17]
  MIC: 0.078 µg/mL (≈ 0.0668 µM)
[18]
  MIC: 0.39 µg/mL (≈ 0.334 µM)

## O=S(=O)(O)c1ccc(O)c(NNc2c(O)ccc3ccccc23)c1
[14]
  IC50: 1 µg/mL

## Nc1ncnc2c1ncn2[C@@H]1O[C@H](CNS(=O)(=O)NC(=O)c2ccccc2O)[C@@H](O)[C@@H]1F
[8]
  Ki: 0.0018 µM
[9]
  MIC: 0.15 µM (≈ 0.0701 µg/mL)

## Nc1ncnc2c1ncn2[C@@H]1O[C@H](CNS(=O)(=O)NC(=O)c2ccccc2O)[C@H](F)[C@H]1F
[2]
  MIC: 0.78 µM (≈ 0.366 µg/mL)
[8]
  Ki: 0.0014 µM

## Cc1ccc(S(=O)(=O)C2CC(=O)N(c3ccc(F)c(Cl)c3)C2=O)cc1 (stereo not drawn)
[14]
  IC50: 24.3 µg/mL
[19]
  MIC90: 17.5 µg/mL (≈ 45.8 µM)

## O=C(O)c1ccc(-c2ccc(C(F)(F)F)cc2C(F)(F)F)o1
[20]
  Ki: 8.8 µM

## N#Cc1cc(C(F)(F)F)ccc1-c1ccc(C(=O)O)o1
[20]
  Ki: 5.7 µM
[21]
  IC50: 18.5 µM

## COC(=O)C(=Cc1ccccc1C(F)(F)F)Oc1cccc(C(=O)OC)c1O
[22]
  MIC: 25 µM (≈ 9.91 µg/mL)
[8]
  Ki: 125 µM

## Nc1ncnc2c1ncn2[C@@H]1O[C@H](CNS(=O)(=O)NC(=O)c2ccccc2O)[C@H](F)[C@H]1O
[8]
  Ki: 0.0006 µM
[9]
  MIC: 0.6 µM (≈ 0.28 µg/mL)

## Nc1ncnc2c1ncn2[C@@H]1O[C@H](CNS(=O)(=O)NC(=O)c2ccccc2O)[C@@H](F)[C@H]1F
[2]
  MIC: 37 µM (≈ 17.4 µg/mL)
[8]
  Ki: 0.139 µM

## O=c1cc(CC2CCCCC2)[nH]c2c(-c3ccc(Cl)cc3)cnn12
[23]
  MIC: 2.5 µM (≈ 0.855 µg/mL)

## COc1ncnc2c1ncn2[C@@H]1O[C@H](CNS(=O)(=O)NC(=O)c2ccccc2O)[C@@H](O)[C@H]1O
[24]
  MIC: 5.3 µg/mL (≈ 11 µM)
[25]
  Ki: 0.277 µM

## C#CCCC(=O)Nc1ccc(C(=O)c2ccc(Nc3nc(N)c4ncn([C@@H]5O[C@H](COS(=O)(=O)NC(=O)c6ccccc6O)[C@@H](O)[C@H]5O)c4n3)cc2)cc1
[12]
  MIC: 3 µM (≈ 2.27 µg/mL)
[13]
  MIC: 50 µM (≈ 37.8 µg/mL)
[26]
  Ki: 0.00094 µM

## CC=C(Oc1cccc(C(=O)O)c1O)C(=O)O
[22]
  MIC: > 1 µM
[8]
  Ki: 11 µM

## N#Cc1cc([N+](=O)[O-])ccc1-c1ccc(C(=O)O)o1
[20]
  Ki: 5 µM
[21]
  IC50: 24.4 µM

## CC1CC(=O)c2c(cc(O)cc2C(=O)O)O1 (stereo not drawn)
[7]
  MIC: 55.8 µM (≈ 12.4 µg/mL)

## CN(C[C@H]1O[C@@H](n2cnc3c(N)ncnc32)[C@H](O)[C@@H]1O)S(=O)(=O)NC(=O)c1ccccc1O
[24]
  MIC: 0.8 µg/mL (≈ 1.67 µM)
[25]
  Ki: 0.159 µM

Source: ChEMBL document CHEMBL5329193, “Targeting Mycobacterium tuberculosis iron-scavenging tools: a recent update on siderophores inhibitors” (RSC Med Chem, 2023)
